Results reported in patent US20060178394A1, “Pharmaceutical compositions comprising apomorphine for pulmonary inhalation” (priority 2003, published 2006).
Entries after “also recorded” stand apart in the source; their conditions may differ. Where a name gives a salt, the structure may show the parent alone. Read-outs that look alike come from different tables or passages of the source.

Experiments:
[1] = test system: patients (quality of erection in response to VSS); test: Clinical study (Example 14): erection response to visual sexual stimulation after DPI inhalation; assay type: in vivo, human; conditions: for Number of patients with quality grade 0, No effect / Number of patients with quality grade 1, Some tumescence, no rigidity / Number of patients with quality grade 2, Some tumescence and rigidity / Number of patients with quality grade 3, Partial erection / Number of patients with quality grade 4, Full erection: ITT; for Effective? / Responding (subjects with grade 3 or 4 erection) / Response rate: ITT population; for Duration, Mean: 60 min test period
Procedure: During each treatment, a patient was administered the given dose and was left alone to watch an hour of visual sexual stimulation (VSS). […] After 60 minutes, the patient's were asked to rate the quality and duration of their response to VSS. In this regard, the quality of response is defined as one of […]: 0: no effect; 1: some tumescence, no rigidity; 2: some tumescence, some rigidity, but not suitable for penetration; 3: rigidity and tumescence that would enable penetration but is not complete erection; 4: complete erection.
This study was conducted in a double blind fashion, where both the healthcare professional administering the treatment and the patient were not informed as to the actual dose being administered. The patients who participated in this study were randomised.
The primary measure of efficacy, as defined in the protocol, was the proportion of subjects reporting a grade 3 or 4 erection, using general criteria defined in the International Index of Erectile Function (IIEF). Grade 3 and 4 erections are regarded as “sufficient for successful intercourse”.

[2] = Solubility of apomorphine HCl in HFA propellant systems (solution pMDI); assay type: physicochemical
Procedure: However, conventional solution pMDI techniques are not believed to be appropriate for the delivery of apomorphine or its pharmaceutically acceptable salts with HFA propellants. Specifically, apomorphine base is too unstable to be formulated using current approaches and apomorphine salts are too polar to be formulated as solutions in HFA propellants. […] Even with such a system, a solution concentration of <25 μg/dose is achieved, which is well below the effective doses described above in connection with Dry Powder Inhalers.

[3] = Adverse event monitoring in the clinical study of Example 14; assay type: in vivo, human; conditions: for All adverse events: subjects with AE, %: safety population
Source text: Adverse events were monitored during each dosing period. The proportion of patients experiencing one or more adverse events was similar in all four treatment groups. No serious adverse events were observed and no adverse event led to the premature discontinuation of any subject. All adverse events were mild or moderate in severity and occurred in a small percentage of the groups treated. Table 9 is a summary of all treatment related adverse events, and Table 10 breaks treatment-related adverse events down by body system.

[4] = Blood analysis 70 minutes after inhalation (Example 14); assay type: in vivo; conditions: human, inhaled, 34 patients
Procedure: For each patient, blood samples were taken 70 minutes after inhalation. The blood samples were analysed, and the blood levels for 400 and 800 microgram doses of apomorphine for each of the 34 patients that completed the test are set forth in Table 11 in nanograms per millilitre. It should be appreciated from the data discussed in Example 15 below that these blood samples were actually taken long after the plasma concentration peak.

[5] = Phase I study: plasma pharmacokinetics of single inhaled doses (Example 15); assay type: in vivo, human; conditions: for Tmax: median values; for Cmax: healthy male volunteers
Procedure: A phase I, double blind, randomised, placebo controlled study was conducted examining the safety, tolerability and pharmacokinetics of single 600 μg, 900 μg and 1200 μg doses in 16 healthy male volunteers. No evaluation for efficacy was conducted during the clinical study.
Pharmacokinetic plasma sampling was conducted pre-dose and at the following intervals post dose administration: 1 minute, 3 minutes, 5 minutes, 10 minutes, 15 minutes, 30 minutes, 45 minutes, 1 hour, 1.5 hours, 2 hours, 4 hours, 8 hours, 12 hours and 24 hours.
The following pharmacokinetic parameters were derived from the plasma apomorphine concentrations by non-compartmental analysis.
It should be noted that the tmax is represented as median values.

[6] = Drug retention and degradation in PE and PVC blisters
[7] = intranasal delivery, clinical setting; Nastech studies; cited from earlier work
[8] = 200 μg inhaled, grade 3 and 4 responders
[9] = 400 μg inhaled, listed as apomorphine HCl, hydrochloride
[10] = 400 μg inhaled, grade 3 and 4 responders
[11] = 800 μg inhaled, listed as apomorphine HCl, hydrochloride
[12] = male, human, plasma, inhaled or intranasal, 600 ug, 600 μg single inhaled dose, mean ± standard error
[13] = male, human, plasma, inhaled or intranasal, 900 ug, 900 μg single inhaled dose, mean ± standard error
[14] = male, human, plasma, inhaled or intranasal, 1200 ug, 1200 μg single inhaled dose, mean ± standard error

Ethanol required for suitable or acceptable solubility ([2]; HFA propellant solution pMDI systems): at least 50%
Solution concentration achieved ([2]; HFA propellant system with at least 50% ethanol): < 25 μg/dose
concentration at 70 min ([4]; 400 μg, 400 μg inhaled, read-out: Blood level 70 minutes after dosing, Mean): 0.215 ng/mL
concentration at 70 min ([4]; 400 μg, 400 μg inhaled, read-out: Blood level 70 minutes after dosing, Median): 0.217 ng/mL
concentration at 70 min ([4]; 800 μg, 800 μg inhaled, read-out: Blood level 70 minutes after dosing, Mean): 0.608 ng/mL
concentration at 70 min ([4]; 800 μg, 800 μg inhaled, read-out: Blood level 70 minutes after dosing, Median): 0.567 ng/mL
AUC0-∞ ([5]; 600 μg single inhaled dose, mean ± standard error): 176.4 ± 26.9 ng·min/mL
Tmax ([5]; 900 μg single inhaled dose, hydrochloride): 1 min
Tmax ([5]; 1200 μg single inhaled dose, hydrochloride): 1 min
Dose proportionality for Cmax, AUC0-∞ and AUC0-t ([5]; 600, 900, 1200 μg inhaled): demonstrated
AUC(0-inf) ([5]; male, human, plasma, inhaled or intranasal, 600 ug, 600 μg inhaled, comparison table with Uprima): 2.2 ng·h/mL
Cmax [5, 12]: 3.5 to 4.9 ng/mL
AUC(0-t) [5, 12]: 2.23 ng·h/mL
Tmax ([5]; male, human, plasma, inhaled or intranasal, 600 ug, 600 μg single inhaled dose, read-out: tmax (converted)): 3 min
AUC(0-inf) ([5]; male, human, plasma, inhaled or intranasal, 900 ug, 900 μg inhaled, comparison table with Uprima): 3.4 ng·h/mL
Cmax [5, 13]: 7.4 to 8.8 ng/mL
AUC(0-inf) [5, 13]: 3.84 ng·h/mL
AUC(0-t) [5, 13]: 3.42 ng·h/mL
Tmax ([5]; male, human, plasma, inhaled or intranasal, 900 ug, 900 μg single inhaled dose, read-out: tmax (converted)): 1 min
AUC(0-inf) ([5]; male, human, plasma, inhaled or intranasal, 1200 ug, 1200 μg inhaled, comparison table with Uprima): 5.5 ng·h/mL
Cmax [5, 14]: 9.2 to 16.2 ng/mL
AUC(0-inf) [5, 14]: 5.5 ng·h/mL
AUC(0-t) [5, 14]: 4.93 ng·h/mL
Tmax ([5]; male, human, plasma, inhaled or intranasal, 1200 ug, 1200 μg single inhaled dose, read-out: tmax (converted)): 1 min
Mean drug retention, PE blisters ([6]; DUSA): 43.6 µg
Mean drug retention, PVC blisters ([6]; DUSA): 12.9 µg
Mean drug retention, PE blisters ([6]; Initial stability): 44.7 µg
Mean drug retention, PVC blisters ([6]; Initial stability): 13.9 µg
SMILES: CN1CCc2cccc3c2[C@H]1Cc1ccc(O)c(O)c1-3 [Apomorphine HCl, apomorphine hydrochloride]
Duration ([1]; 200 μg inhaled): 24 min
Duration, Max ([1]; 200 μg inhaled): 47 min
Duration, Median ([1]; 200 μg inhaled): 31.5 min
Onset of an erection in one patient ([1]; 200 μg inhaled, FIG. 12): about 40 minutes
Number of patients with quality grade 0, No effect ([1]; 200 μg inhaled): 11
Number of patients with quality grade 1, Some tumescence, no rigidity ([1]; 200 μg inhaled): 10
Number of patients with quality grade 2, Some tumescence and rigidity ([1]; 200 μg inhaled): 6
Number of patients with quality grade 3, Partial erection ([1]; 200 μg inhaled): 6
Number of patients with quality grade 4, Full erection ([1]; 200 μg inhaled): 2
Effective? ([1]; 200 μg inhaled): No
Responding (subjects with grade 3 or 4 erection) ([1]; 200 μg inhaled, 35 evaluated): 8
Response rate ([1]; 200 μg inhaled, hydrochloride): 22.9%
Duration, Mean ([1]; 200 μg inhaled, N 8): 33.3 min
Onset, Max [1, 8]: 20 min post dose
Onset, Min [1, 8]: 8 min post dose
Onset, Mean ([1]; 200 μg inhaled, grade 3 and 4 responders, N 8): 13 min post dose
Duration ([1]; 400 μg inhaled): 4 min
Duration, Max ([1]; 400 μg inhaled): 54 min
Duration, Median ([1]; 400 μg inhaled): 38 min
Onset of an erection in one patient ([1]; 400 μg inhaled, FIG. 13): about 3 minutes
Number of patients with quality grade 0, No effect ([1]; 400 μg inhaled): 8
Number of patients with quality grade 1, Some tumescence, no rigidity ([1]; 400 μg inhaled): 6
Number of patients with quality grade 2, Some tumescence and rigidity ([1]; 400 μg inhaled): 3
Number of patients with quality grade 3, Partial erection ([1]; 400 μg inhaled): 8
Number of patients with quality grade 4, Full erection ([1]; 400 μg inhaled): 8
Responding (subjects with grade 3 or 4 erection) ([1]; 400 μg inhaled, 33 evaluated): 16
Effective? ([1]; 400 μg inhaled, listed as apomorphine HCL, hydrochloride): effective
Effective? [1, 9]: effective and Yes
Response rate [1, 9]: 48.5%
Duration, Mean ([1]; 400 μg inhaled, N 16): 31.1 min
Onset, Max [1, 10]: 28 min post dose
Onset, Median [1, 10]: 8 min post dose
Onset, Mean ([1]; 400 μg inhaled, grade 3 and 4 responders, N 16): 11 min post dose
Onset, Min ([1]; 400 μg inhaled, grade 3 and 4 responders, hydrochloride): 3 min post dose
Duration ([1]; 800 μg inhaled): 6 min
Duration, Max ([1]; 800 μg inhaled): 54 min
Duration, Median ([1]; 800 μg inhaled): 36 min
Onset of an erection in one patient ([1]; 800 μg inhaled, FIG. 14): about 4 minutes
Number of patients with quality grade 1, Some tumescence, no rigidity ([1]; 800 μg inhaled): 3
Number of patients with quality grade 2, Some tumescence and rigidity ([1]; 800 μg inhaled): 7
Number of patients with quality grade 3, Partial erection ([1]; 800 μg inhaled): 6
Number of patients with quality grade 4, Full erection ([1]; 800 μg inhaled): 14
Responding (subjects with grade 3 or 4 erection) ([1]; 800 μg inhaled, 34 evaluated): 20
Effective? ([1]; 800 μg inhaled, listed as apomorphine HCL, hydrochloride): effective
Effective? [1, 11]: effective and Yes
Response rate [1, 11]: 58.8%
Duration, Mean ([1]; 800 μg inhaled, N 19): 31.2 min
Onset, Max ([1]; 800 μg inhaled, grade 3 and 4 responders): 17 min post dose
Onset, Mean ([1]; 800 μg inhaled, grade 3 and 4 responders, N 19): 10 min post dose
Onset, Min ([1]; 800 μg inhaled, grade 3 and 4 responders, hydrochloride): 3 min post dose
Lowest inhaled dose at which the clinical effect is observed ([1]; pulmonary inhalation): 400 µg
Treatment-related AE: Cough, % ([3]; 200 μg inhaled): 3%
Treatment-related AE: Dizziness, % ([3]; 200 μg inhaled): 3%
Treatment-related AE: Nasal congestion, % ([3]; 200 μg inhaled): 3%
Treatment-related AE: Nervous system disorders, % ([3]; 200 μg inhaled): 3%
Treatment-related AE: Respiratory, thoracic & mediastinal disorders, % ([3]; 200 μg inhaled): 3%
Treatment-related AE: Sneezing, % ([3]; 200 μg inhaled): 3%
Treatment-related adverse events: subjects with AE, % ([3]; 200 μg inhaled): 6%
All adverse events: subjects with AE, % ([3]; 200 μg inhaled): 9%
Treatment-related AE: Dry throat, % ([3]; 400 μg inhaled): 3%
Treatment-related AE: Pharyngolaryngeal pain, % ([3]; 400 μg inhaled): 6%
Treatment-related AE: Respiratory, thoracic & mediastinal disorders, % ([3]; 400 μg inhaled): 9%
Treatment-related adverse events: subjects with AE, % ([3]; 400 μg inhaled): 9%
All adverse events: subjects with AE, % ([3]; 400 μg inhaled): 9%
Treatment-related AE: Dizziness, % ([3]; 800 μg inhaled): 6%
Treatment-related AE: Gastrointestinal disorders, % ([3]; 800 μg inhaled): 3%
Treatment-related AE: Nausea, % ([3]; 800 μg inhaled): 3%
Treatment-related AE: Nervous system disorders, % ([3]; 800 μg inhaled): 6%
Treatment-related adverse events: subjects with AE, % ([3]; 800 μg inhaled): 6%
All adverse events: subjects with AE, % ([3]; 800 μg inhaled, hydrochloride): 6%
Chemical stability in the presence of polyethylene (PE blisters) ([6]; initial stability data, related substance peaks after 1 month, hydrochloride): chemically degrades; also recorded: degradation of the formulated product takes place
Dose that can be administered without causing unacceptable side effects [7]: more than 2 mg
